For the experiment, the target named is T1, JAK2 (Mus musculus, UniProt Q62120).
T1 construct: endogenous in cells; host or cells: BAF3
Description: JAKs cell activity test: JAK2_pSTAT5 in IL-3-induced BAF3 cells. The class given is cell-based. To be noted: pSTAT5, IL-3-induced BAF3 cells. The procedure:
THP1 cells were collected by centrifugation, resuspended with 1×HBSS, counted and diluted to a certain cell density. They were inoculated in a 384-well plate and cultured in a saturated humidity incubator with 37 °C and 5% CO2. The compound (DMSO final volume of 0.3%) was added to THP1 cells (10 doses in duplicates) and cultured in a saturated humidity incubator with 37 °C and 5% CO2. hIL-4 was added to stimulate cells and cultured in a saturated humidity incubator with 37 °C and 5% CO2. The lysis solution was added and incubated at room temperature. According to the instructions of AlphaLISA SureFire Ultra p-STAT6 detection kit, the lysis solution was transferred to pSTAT6 detection system, and the ALPHA signal was read by PE Envision microplate reader. The inhibition rate Inh%=((DMSO-sample)/(DMSO-background))×100 was calculated. IC50 was obtained by fitting with GraphPad Prism non-linear regression equation, and y=Bottom+(Top-Bottom)/(1+10^((LogIC50-x)×hillslope)), where x was the concentration of the compound and y was the inhibition rate.
JAK2_pSTAT5 was tesed in IL-3-induced BAF3 cells according to the above steps, and JAK3_pSTAT5 was tested in IL-2-induced CTLL-2 cells (without serum stimulation) according to the above steps.

T1 sequence (Q62120 whole entry): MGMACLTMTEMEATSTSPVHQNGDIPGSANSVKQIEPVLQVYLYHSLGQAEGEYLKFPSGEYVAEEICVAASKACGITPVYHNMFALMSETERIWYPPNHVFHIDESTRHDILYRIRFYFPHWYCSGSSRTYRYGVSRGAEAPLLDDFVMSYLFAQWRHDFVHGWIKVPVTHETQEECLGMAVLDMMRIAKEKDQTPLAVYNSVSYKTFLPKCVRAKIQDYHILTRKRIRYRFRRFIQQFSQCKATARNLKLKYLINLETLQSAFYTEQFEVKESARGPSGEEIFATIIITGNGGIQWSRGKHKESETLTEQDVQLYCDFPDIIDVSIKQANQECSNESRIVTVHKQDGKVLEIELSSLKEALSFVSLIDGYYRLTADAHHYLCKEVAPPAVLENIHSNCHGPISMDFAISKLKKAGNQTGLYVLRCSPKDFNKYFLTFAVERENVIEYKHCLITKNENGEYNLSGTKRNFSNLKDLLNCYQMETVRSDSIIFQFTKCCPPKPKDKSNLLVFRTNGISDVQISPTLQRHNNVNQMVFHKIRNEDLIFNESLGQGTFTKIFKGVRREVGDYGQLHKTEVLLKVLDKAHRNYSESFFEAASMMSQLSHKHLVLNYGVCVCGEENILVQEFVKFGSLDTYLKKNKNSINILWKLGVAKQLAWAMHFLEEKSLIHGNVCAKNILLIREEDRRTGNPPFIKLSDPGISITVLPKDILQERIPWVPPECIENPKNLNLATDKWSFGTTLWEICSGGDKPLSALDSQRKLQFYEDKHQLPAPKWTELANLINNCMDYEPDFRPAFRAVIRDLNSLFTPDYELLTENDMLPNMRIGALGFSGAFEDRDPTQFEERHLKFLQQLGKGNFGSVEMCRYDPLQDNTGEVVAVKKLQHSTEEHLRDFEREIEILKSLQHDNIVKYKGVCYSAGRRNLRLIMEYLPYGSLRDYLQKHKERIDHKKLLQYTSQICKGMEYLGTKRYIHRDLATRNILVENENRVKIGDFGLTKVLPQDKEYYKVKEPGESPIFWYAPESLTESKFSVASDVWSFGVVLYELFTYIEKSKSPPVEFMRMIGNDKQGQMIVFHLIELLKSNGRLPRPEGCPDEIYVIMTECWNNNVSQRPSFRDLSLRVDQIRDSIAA

A word on the EC50: it is the concentration at which the effect is half-maximal. A low value points to higher potency in that assay. Compound `CN1CCOCCOc2cc(Nc3nc(-c4cnn(C(CC#N)C5CCCC5)c4)c4cc[nH]c4n3)ccc2OCC1` (stereo not shown) [Example 26, 3-cyclopentyl-3-(4-(2-((7-methyl-2,3,6,7,8,9-hexahydro-5H-benzo[b][1,4,7]trioxa[10]azacyclododecan-13-yl)amino)-7H-pyrrolo[2,3-d]pytimidin-4-yl)-1H-pyrazol-1-yl)propionitrile] registered an EC50 of 0.5 to 5 µM.

For the origin of these results see patent EP4592286A1, “MACROCYCLIC NITROGEN-CONTAINING CROWN ETHER COMPOUND AND USE THEREOF AS PROTEIN KINASE INHIBITOR” (Artivila Biopharma, priority 2022, dated 2024).
